Laboratory results reported in US6541193B2, “Screening the activity of drugs for central nervous system (CNS)” (Council of Scientific & Industrial Research, priority 2001, dated 2003).

Tested on: Sh^5eag^1 mutant flies
Assay: Recovery time from diethyl ether anesthesia in flies fed drug in food
Assay type: in vivo, Drosophila melanogaster
Details: Sh^5eag^1 males
Method: Standard Drosophila manipulation methods were followed. Cultures were grown on a medium containing maize powder, sugar, yeast and Nipagin. Flies were maintained and further manipulated at room temperature. Experimental conditions were kept identical. The double mutant Sh^5eag^1 was generated using standard methods of Drosophila genetics.
Equal number of Sh^5eag^1 males, varying in age between 6-9 days, were treated in 25×100 mm glass vials with either normal food (NF) or food containing 1 mg/ml of phenobarbital sodium (PS; NF+PS) for 5 days. Twenty males were treated in each vial. Flies were first anesthesized with ether and healthy looking individuals shifted to 10 empty vials in such a way that each vial received two flies, one from each treatment. Before shifting, flies from one of the two treatments were marked on their wings for the purpose of identification. Flies were allowed to recover fully. After an hour, each fly pair was subjected to the following test one by one. The two flies, inside a vial with 800 mg of cotton plug, were simultaneously anesthetized by pouring 0.2 ml of diethyl ether on to the plug. After about 1.5 min, during which the vial was gently shaken continuously so that the flies remained at the bottom throughout, the two individuals were immediately shifted to two fresh empty vials. Time at this point was considered 0 min. […]

## CCC1(c2ccccc2)C(=O)NC(=O)NC1=O [PS, phenobarbital sodium]
1 mg/ml in food for 5 days, vs normal food
  effect on recovery from ether anesthesia: delays recovery from ether anesthesia
Food containing 1 mg/ml for 5 days, diethyl ether anesthesia, NF control 2.4±0.44 min, p<0.02
  recovery time (time to first stand up on legs after etherisation): 7.2 ± 1.78 min
